Data from the supplement of paper PMC10477900.
Structures can show the parent of a compound that is named as a salt.

Columns and labels:
HCT116 [1] = assay: viability inhibition vs untreated; higher = more cytotoxic; details: 72 h
HCT116 [2] = details: 72 h
Experimental: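 HCT116 control and MTA1-KO (CRISPR) HCT116 cells were seeded in 384-well plates (800 cells/well), treated 16 h later with 237 metabolism-related anticancer drugs at five doses (10 uM, 2 uM, 400 nM, 80 nM, 16 nM) for 72 h, two replicates; viability by CCK8. Values are % inhibition of viability relative to untreated cells, plus fitted IC50.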

| SMILES | viability inhibition (HCT116 [1]; genotype: MTA1-KO, 16 nM) [%] | viability inhibition (HCT116 [1]; genotype: MTA1-KO, 80 nM) [%] | viability inhibition (HCT116 [1]; genotype: MTA1-KO, 400 nM) [%] | viability inhibition (HCT116 [1]; genotype: MTA1-KO, 2000 nM) [%] | viability inhibition (HCT116 [1]; genotype: MTA1-KO, 10000 nM) [%] | viability inhibition (HCT116 [1]; genotype: control, 16 nM) [%] | viability inhibition (HCT116 [1]; genotype: control, 80 nM) [%] | viability inhibition (HCT116 [1]; genotype: control, 400 nM) [%] | viability inhibition (HCT116 [1]; genotype: control, 2000 nM) [%] | viability inhibition (HCT116 [1]; genotype: control, 10000 nM) [%] | IC50 (HCT116 [2]; genotype: MTA1-KO) [µM] | IC50 (HCT116 [2]; genotype: control) [µM] |
| --- | --- | --- | --- | --- | --- | --- | --- | --- | --- | --- | --- | --- |
| O=[N+]([O-])c1ccc(Nc2ccccc2-c2ccccc2)c2nonc12 | 2.01 | -8.53 | -10.8 | -6.96 | 68.6 | 9.25 | 24.7 | 13.3 | 14.3 | 23.9 | 8.18 | > 10 |
| CC(C)n1c(/C=C/[C@H](O)C[C@H](O)CC(=O)O)c(-c2ccc(F)cc2)c2ccccc21 (racemic) [Fluvastatin sodium salt] | 12.1 | 16.7 | 12.8 | 19.3 | 60.4 | 5.71 | 10.5 | 12.1 | 38 | 32.9 | 8.96 | > 10 |
| Nc1ccccc1S(N)(=O)=O [2-Aminobenzenesulfonamide] | -12 | -6.34 | -8.18 | -6.12 | -8.74 | -4.67 | -10.5 | -7.82 | -0.883 | 19.7 | > 10 | > 10 |
| COc1cc2c(cc1O)CC[C@@H]1[C@@H]2CC[C@]2(C)[C@@H](O)CC[C@@H]12 [2-Methoxyestradiol] | 12.6 | 9.89 | 15.7 | 38.7 | 80.2 | 8.28 | 14.6 | 22.6 | 24.1 | 33.6 | 3.34 | > 10 |
| CN(Cc1ccccc1)c1ccc2cc(C(=O)O)c(=O)oc2c1 [7ACC2] | -27.3 | -0.988 | 20.9 | 24.6 | 29 | 15 | -0.73 | 50.7 | 64.6 | 80.8 | > 10 | 0.373 |
| CC(N)=NCc1cccc(CN)c1 [1400W dihydrochloride] | 5.1 | -4.81 | -3.44 | -9.66 | 42.6 | 5.38 | -11.1 | -13.9 | -9.74 | 2.89 | > 10 | > 10 |
| Cc1ccc2c(c1)C(=O)[C@]1(O)CCN(c3ccccc3)C1=N2 [(-)-Blebbistatin] | 2.62 | -5.47 | -2.06 | -3.88 | -5.36 | -9 | -4.56 | -13.5 | -18.9 | -8.68 | > 10 | > 10 |
| O=C(O[C@@H]1Cc2c(O)cc(O)cc2O[C@@H]1c1cc(O)c(O)c(O)c1)c1cc(O)c(O)c(O)c1 [(-)-Epigallocatechin Gallate] | 13 | -1.62 | 5.38 | 12 | 19.4 | -8.68 | -5.93 | -14.9 | -4.61 | -3.45 | > 10 | > 10 |
| O=C(O)[C@@]1(CCCCCCOc2ccc(Cl)cc2)CO1 [(R)-Etomoxir sodium salt] | -11.4 | -21.5 | -17.4 | -13.9 | 37.6 | 12.3 | 19.7 | 14.6 | 15.3 | 26.1 | > 10 | > 10 |
| C[C@H](Oc1cc(-c2cnn(C3CCNCC3)c2)cnc1N)c1c(Cl)ccc(F)c1Cl [(S)-crizotinib] | -3.98 | -2.9 | -13.5 | -16.1 | 66.9 | 6.82 | -13.4 | -0.064 | -12.1 | -7.51 | 9.42 | > 10 |
| Cc1ccccc1C(C(=O)NC1CCCCC1)N(C(=O)Cn1ccnc1C)c1cccc(F)c1 (stereo not given) [AGI5198] | 7.58 | 7.91 | 5.76 | 8.57 | 37.4 | -3.24 | -17.7 | -10.7 | -12.3 | 2.37 | > 10 | > 10 |
| O=C(Nc1cccc(C(F)(F)F)c1)Nc1cc(S(=O)(=O)NC2CC2)ccc1-c1ccsc1 [AGI6780] | 4.84 | -6.61 | 9.84 | 15.6 | 49.9 | 13.6 | 18.2 | 3.86 | 16.8 | 22.5 | > 10 | > 10 |
| NC(=O)c1ncn([C@@H]2O[C@H](CO)[C@@H](O)[C@H]2O)c1N [AICAR (Acadesine)] | -0.376 | 0.906 | -7.18 | -5.56 | 6.99 | -3.52 | -3.58 | -3.52 | -4.22 | 37.8 | > 10 | > 10 |
| CC[C@H](CC#N)OC(=O)N[C@@H](C)c1cccc(NC(=O)Nc2ccc(-c3cnco3)c(OC)c2)c1 [AVN944] | 5.16 | 4.61 | 58.7 | 80.9 | 93.7 | -0.119 | 29.5 | 75.2 | 92.9 | 96.3 | 0.311 | 0.131 |
| Cc1[nH]nc(C(F)(F)F)c1Cc1sc2c(c1C(=O)N1C[C@](C)(O)CO1)c(=O)n(C)c(=O)n2C(C)C [AZD3965] | -7.19 | 25.1 | 22.9 | 31.7 | 47.6 | 0.727 | 24.8 | 21.6 | 40.3 | 45.9 | 0.576 | 0.338 |
| COc1ccc(-c2ccc3c(N4CCOC[C@@H]4C)nc(N4CCOC[C@@H]4C)nc3n2)cc1CO [AZD8055] | -21.9 | -16.3 | 15.5 | 41.3 | 67.5 | 0.243 | 13.1 | 36.1 | 46.1 | 37.6 | 0.843 | > 10 |
| COCCNC(=O)Nc1ccc2nc(-c3cccs3)c(-c3cccs3)nc2c1 [Ac-CoA Synthase Inhibitor1] | -8.17 | 14.9 | 15 | 10.1 | 6.2 | 3.53 | 9.39 | -0.277 | -10.1 | 8.5 | > 10 | > 10 |
| CC(=O)Nc1nnc(S(N)(=O)=O)s1 [Acetazolamide] | -8.41 | -9.41 | -15.4 | -8.8 | 6.99 | -4.74 | -13.5 | -4.54 | -3.32 | -0.433 | > 10 | > 10 |
| Nc1ncnc2c1ncn2[C@@H]1O[C@H](COP(=O)(O)O)[C@@H](O)[C@H]1O [Adenosine 5'-monophosphate monohydrate] | -22.7 | -25.1 | -20.2 | -18.3 | -15.5 | 14.8 | 5.2 | 12.1 | 10.3 | 11.9 | > 10 | > 10 |
| CCC(C)(C)C(=O)O[C@H]1C[C@@H](C)C=C2C=C[C@H](C)[C@H](CC[C@@H]3C[C@@H](O)CC(=O)O3)[C@H]21 [Simvastatin] |  |  |  |  |  |  |  |  |  |  | > 10 | > 10 |
